# Reference: patent publication US11472807B2, “Purine derivatives for use as medicament and for use in treating neurodegenerative or neuro-inflammatory disorders” (COMMISSARIAT À L'ENERGIE ATOMIQUE ET AUX ENERGIES …, priority 2017, dated 2022)
# Columns and labels:
# [1] = system: short-term memory (working memory); assay: Y-maze spontaneous alternation test; assay type: in vivo, C57Bl/6J mice; details: WT mice, 8 mg/kg subcutaneous, 28 days
# Method: FIG. 13. Plots illustrating the effect of Aftin-5 on short-term memory (working memory) in Y maze. C57B1/6J mice were exposed sub-cutaneously to Aftin-5 at 8 mg/kg (A8) or vehicle (DMSO/PEG; Veh) during 28 days through an Alzet pump. 3-4 weeks later, cognitive abilities were assessed by the means of the total number of arm entries (A) and the percentage of alternation (B). Mann-Whitney tests were performed and **p<0.01 indicates significant differences between Aftin-5 and control conditions. Data expressed as means+/−SEM with n=15 mice/condition. The spontaneous alternation test (Y maze) is a test to evaluate the short-term memory (working memory) of the animal. This test is carried out in a Y-maze with arms customized by different forms; squares (A), triangles (B) and lines (C). The mouse is placed in one of the arms for 8 min. In this test, the mouse is free to explore spontaneously the three arms of the Y-maze (FIG. 1). During the session, the number of entries of each arm of the Y-maze is counted. At the end of the session, the number of possibility (number of total entries in the arms) and the number of spontaneous alternation are calculated. An alternation is defined by consecutive entries in the three different arms (A-B-C). A mouse with a normal phenotype will tend to explore the novelty. […]
# IL-1β = IL-1β mRNA in OHSC (RT-qPCR); assay type: cell-based, mice; details: 50 μM, 10 days, vs vehicle, P<0.001
# Method: FIG. 10. Plots illustrating the effect of Aftin-5 on relative mRNA expression levels of interleukin-1-beta (IL-1β; (A)), interleukin-6 (IL-6; (B)), TNF-alpha (TNFα; (C)) and interleukin-10 (IL-10; (D)) in organotypic hippocampal slice cultures (OHSC). OHSC culture media […] were replaced by incubation medium containing Aftin-5 (50 μM; A50) or vehicle (0.1% DMSO; Veh). 10 days later, total mRNA in lysate was isolated and purified, cDNAs were then synthesized from […] of total mRNA. cDNAs were amplified by quantitative RT-PCR and the relative expression of specific genes was normalized to the housekeeping gene HPRT1 (2^−ΔCt). Mann-Whitney tests were performed and ***p<0.001 indicates significant differences between Aftin-5 and control conditions. Data expressed as means+/−SEM from q=3 independent experiments with n=4-6 inserts/condition and 10 slices/insert. […]
# (§1) The impact of Aftin-5 on gene expression of different biomarkers was determined by measuring mRNA levels of selected BDNF, CREB, PS95, INS Receptor/IGF-1 receptor, IL-1β, IL-6 in OHSC treated chronically with Aftin-5 or in a total brain from mice exposed to Aftin-5 at either 8 or 30 mg/Kg. […] Threshold cycles (Ct) of target gene and cyclophilin A (Ppia−control housekeeping gene) were recorded and gene expression was calculated as 2^−ΔΔCt(ΔΔCt=ΔCttreated−ΔCtcontrol, ΔCt=Cttarget−CtPpia). […]
# [2] = system: TNF-α, IL-1β and IL-6 mRNA; assay: Cytokine mRNA in OHSC from transgenic 3×Tg-AD mice (RT-qPCR); assay type: cell-based, transgenic Tau mice (3×Tg-AD); details: OHSC from transgenic mice overexpressing P-Tau, 50-150 μM, 10 days, vs vehicle
# Method: FIG. 11. Plots illustrating the effect of Aftin-5 mediated attenuation of TNF-α (A) and IL-1β (B) and IL-6 (C) in organotypic hippocampal slice cultures from wild type mice (C57BI/6J) and transgenic Tau mice (3×Tg-AD). 3 Tg organotypic hippocampal slice cultures media were replaced by incubation medium containing Aftin-5 at 50 μM (A50), 100 μM (A100) and 150 μM (A150) or vehicle (0.1% DMSO; Veh). After chronic treatment (10 days) total mRNA in lysate was isolated and purified, cDNAs were then synthesized from […] of total mRNA. cDNAs were amplified by quantitative RT-PCR and the relative expression of specific genes was normalized to the housekeeping gene HPRT1 (2^−ΔCt). […] Data expressed as means+/−SEM (n=2-6 wells/condition) from q=2 independent experiments with n=2-6 inserts/conditions and 10 slices/insert. […]
# as §1
smiles,measurement,setting,value
CC[C@H](CO)Nc1nc(N(C)c2ccccc2)c2ncn(C(C)C)c2n1 [Aftin-5],spatial memory in Y-maze,[1],improved spatial memory
same,IL-1β-mRNA synthesis,IL-1β,significantly decrease
same,"cytokine-mRNA synthesis (TNF-α, IL-1β, IL-6)",[2],decreases
